Measurements as given in patent US10344330B2, “Glatiramer acetate response biomarker mRNA potency assay” (Mylan Inc., priority 2013, dated 2019).

System: IL-4 mRNA in LN cells
Assay: IL-4 mRNA by real-time PCR in LN cells of GA-immunized CD-1, BALB/cByJ, SJL/J mice (Example III)
Assay type: cell-based, mouse
Conditions: 6 hours
Experimental: On Day 0, mice were immunized with 250 μg GA (GMA, Mylan Pharmaceuticals, Inc.) and CFA. The GA solution (20 mg/mL) was diluted with Dulbecco's Phosphate-Buffered Saline to 5 mg/mL. The dosing formulation consisted of equal volumes of the diluted GA solution (5 mg/mL) and CFA solution, mixed until well-emulsified. Animals were weighed and allocated to groups. Animals were dosed by injection into four footpads. The injection volume per animal was 0.1 mL (about 10 μL into each front footpad, and 40 μL into each hind footpad).
Immunized animals were euthanized by cervical dislocation on Day 10 post-immunization. Lymph node cells were isolated from animals and treated with Myelin Basic Protein (MBP, a negative control), Concanavalin A (ConA, a positive control) or GA as shown in Table 16. Lymph nodes in the axillary and popliteal regions were removed aseptically in a purifier clean bench. […] The LN were then washed 3 times with −5 mL of RPMI medium, and isolated by pressing the LN with a syringe plunger. […] The cell suspension was centrifuged at about 200×g for 10 minutes at about 4° C. and re-suspended in ice cold enriched DCCM-1 medium. Cells were seeded in 96-well tissue culture plates.
LN cells isolated from GA-immunized animals were stimulated with GA (GMA, Mylan Pharmaceuticals, Inc.) at concentrations as indicated in Tables 16 and 17. A positive control was prepared by treating LN cells with 2.5 μg/mL concavalin A (ConA, a non-specific T cell stimulant). Myelin basic protein (MBP, 10 μg/mL) and enriched DCCM-1 medium served as negative controls. The cells from all groups each were stimulated with the same GA lot. Each reaction was set up in triplicate.
After incubation at about 37° C. in a humidified CO2 incubator for 6 hours, the cells were lysed for total RNA isolation. Total RNA was isolated from treated LN cells using SV 96 Total RNA Isolation System according to the manufacturer's protocol (Promega, Cat. #Z3500). Cells were washed once with Phosphate Buffered Saline (PBS) and lysed in RNA lysis buffer. The lysate was transferred to wells of the SV 96 binding plate. Samples were washed with RNA wash solution and treated with DNase. Total RNA was eluted with nuclease-free water from the binding plate.
After the reverse transcriptase reaction was completed, cDNA samples were used directly for real-time PCR to measure the response biomarker mRNA levels produced by the stimulated cells. […] All probes for target genes contained FAM dye, and probes for the internal control contained VIC®/MGB dye. Samples will be prepared and run in 96-well plates using a Real-Time PCR system (7500, Life Technologies). This system allows direct detection of PCR-product formation by measuring the increase in fluorescent emission continuously during the PCR reaction. A relative quantitation method was used to analyze changes in mouse IL-2, IL-4, IL-5, IL-10, IL-13, IFN-γ and TNF-α expression in GA-treated samples relative to the untreated control (enriched DCCM-1 treated) samples. The Real-Time PCR program was:
The levels of mouse cytokine amplicons (IL-2, IL-4, IL-5, IL-10, IL-13, mIFN-γ and TNF-α) were normalized to internal probe levels (GAPDH) from the same samples. The following equations were used to calculate the relative increase in response to GA stimulation compared to the control sample: ΔCT=CT_target−CT_reference ΔΔCT=−ΔCT_Treated−CT_VC

[1] = Group 1C: CD-1, GA-immunized, stimulation 10 μg/mL
[2] = Group 2C: BALB/cByJ, GA-immunized, stimulation 10 μg/mL
[3] = Group 3C: SJL/J, GA-immunized, stimulation 10 μg/mL

Molecule | IL-4 mRNA Expression (Group 1C: CD-1, GA-immunized, stimulation 0.3 μg/mL) | IL-4 mRNA Expression (Group 1C: CD-1, GA-immunized, stimulation 1 μg/mL) | IL-4 mRNA Expression (Group 1C: CD-1, GA-immunized, stimulation 3 μg/mL) | IL-4 mRNA Expression [1] | IL-4 mRNA Expression (Group 2C: BALB/cByJ, GA-immunized, stimulation 0.3 μg/mL) | IL-4 mRNA Expression (Group 2C: BALB/cByJ, GA-immunized, stimulation 1 μg/mL) | IL-4 mRNA Expression (Group 2C: BALB/cByJ, GA-immunized, stimulation 3 μg/mL) | IL-4 mRNA Expression [2] | IL-4 mRNA Expression (Group 3C: SJL/J, GA-immunized, stimulation 0.3 μg/mL) | IL-4 mRNA Expression (Group 3C: SJL/J, GA-immunized, stimulation 1 μg/mL) | IL-4 mRNA Expression (Group 3C: SJL/J, GA-immunized, stimulation 3 μg/mL) | IL-4 mRNA Expression [3] | IL-4 mRNA Expression (Group 1C: CD-1, GA-immunized, stimulation 2.5 μg/mL) | IL-4 mRNA Expression (Group 2C: BALB/cByJ, GA-immunized, stimulation 2.5 μg/mL) | IL-4 mRNA Expression (Group 3C: SJL/J, GA-immunized, stimulation 2.5 μg/mL)
L-glutamic acid polymer with L-alanine, L-lysine and L-tyrosine, acetate (salt) [GA] | 1.6 fold change vs control | 4.7 fold change vs control | 6.1 fold change vs control | 11.2 fold change vs control | 4.2 fold change vs control | 6.5 fold change vs control | 10.1 fold change vs control | 9.8 fold change vs control | 2.0 fold change vs control | 5.2 fold change vs control | 10.0 fold change vs control | 15.3 fold change vs control |  |  | 
Concanavalin A [ConA, reference compound] |  |  |  |  |  |  |  |  |  |  |  |  | 23.8 fold change vs control | 27.2 fold change vs control | 29.2 fold change vs control
MBP: myelin basic protein, a negative control (protein, UniProt P02686 1-304, looked up) Myelin basic protein: MGNHAGKRELNAEKASTNSETNRGESEKKRNLGELSRTTSEDNEVFGEADANQNNGTSSQDTAVTDSKRTADPKNAWQDAHPADPGSRPHLIRLFSRDAPGREDNTFKDRPSESDELQTIQEDSAATSESLDVMASQKRPSQRHGSKYLATASTMDHARHGFLPRHRDTGILDSIGRFFGGDRGAPKRGSGKDSHHPARTAHYGSLPQKSHGRTQDENPVVHFFKNIVTPRTPPPSQGKGRGLSLSRFSWGAEGQRPGFGYGGRASDYKSAHKGFKGVDAQGTLSKIFKLGGRDSRSGSPMARR |  |  |  | 0.6 fold change vs control |  |  |  | 1.1 fold change vs control |  |  |  | 0.5 fold change vs control |  |  | 
